Patent publication US8841319B2, “Use of 3-(indolyl)- or 3-(azaindolyl)-4-arylmaleimide derivatives in leukemia management” (Johannes Gutenberg-Universitat Mainz, priority 2007, dated 2014)

Key:
[1] = biological target: T1, FLT3-kinase (Homo sapiens, UniProt P36888); test: FLT3-kinase assay at two ATP concentrations; assay type: biochemical
T1 sequence (P36888 27-993): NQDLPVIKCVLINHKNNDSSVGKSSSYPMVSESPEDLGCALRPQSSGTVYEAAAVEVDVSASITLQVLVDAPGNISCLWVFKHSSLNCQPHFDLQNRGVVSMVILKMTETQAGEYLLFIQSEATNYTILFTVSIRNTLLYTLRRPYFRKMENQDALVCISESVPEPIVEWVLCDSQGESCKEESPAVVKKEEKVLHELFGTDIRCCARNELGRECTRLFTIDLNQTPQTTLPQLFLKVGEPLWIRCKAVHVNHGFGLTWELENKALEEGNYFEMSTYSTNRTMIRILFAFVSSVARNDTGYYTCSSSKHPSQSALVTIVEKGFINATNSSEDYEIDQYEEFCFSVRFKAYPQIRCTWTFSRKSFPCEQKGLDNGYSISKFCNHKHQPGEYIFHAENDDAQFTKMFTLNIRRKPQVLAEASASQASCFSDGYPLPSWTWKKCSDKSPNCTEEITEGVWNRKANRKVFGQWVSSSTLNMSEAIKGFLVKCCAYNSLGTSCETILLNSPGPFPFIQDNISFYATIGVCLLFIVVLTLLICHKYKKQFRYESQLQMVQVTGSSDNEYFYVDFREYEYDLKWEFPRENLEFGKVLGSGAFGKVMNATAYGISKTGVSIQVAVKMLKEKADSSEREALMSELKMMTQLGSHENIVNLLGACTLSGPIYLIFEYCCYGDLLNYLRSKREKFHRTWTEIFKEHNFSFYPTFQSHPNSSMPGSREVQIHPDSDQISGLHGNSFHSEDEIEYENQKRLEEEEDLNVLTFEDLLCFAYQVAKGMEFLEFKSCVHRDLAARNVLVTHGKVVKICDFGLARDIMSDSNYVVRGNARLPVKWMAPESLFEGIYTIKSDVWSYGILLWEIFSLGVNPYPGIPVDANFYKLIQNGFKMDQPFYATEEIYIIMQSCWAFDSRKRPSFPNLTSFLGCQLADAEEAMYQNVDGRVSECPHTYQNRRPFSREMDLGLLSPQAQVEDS

[2] = system: murine 32D-FLT3-ITD cells; test: Apoptosis assay by cell cycle analysis (sub-G1 fraction) in 32D-FLT3-ITD cells; assay type: cell-based; settings: 48 h incubation
Description: A human FLT3-ITD construct, subcloned into the pAL expression vector under control of the 5′ long terminal repeat (LTR) of the Moloney murine sarcoma virus (MoMSV) and the plasmid pMAM/BSD were used as previously described (Mizuki, M., Schwable, J., Steur, C., Choudhary, C., Agrawal, S., Sargin, B., Steffen, B., Matsumura, I., Kanakura, Y., Bohmer, F. D., Muller-Tidow, C., Berdel, W. E. & Serve, H. (2003) Suppression of myeloid transcription factors and induction of STAT response genes by AML-specific FLT3 mutations. Blood, 101, 3164-3173). The N676K point mutation was introduced into this FLT3-ITD construct (Medigenomix Martinsried, Germany). […]
The induction of apoptosis in murine 32D-FLT3-ITD cells measured by sub-G1-fraction in cell cycle analysis upon 48 h incubation with two 3-(indolyl)- and 3-(azaindolyl)-4-phenylmaleimide derivatives (DHF125 and DHF150) was evaluated.

[3] = system: FLT3-WT cells; test: Apoptosis assay by cell cycle analysis (sub-G1 fraction) in FLT3-WT cells; assay type: cell-based; settings: up to 10 μM, 48 h incubation
[4] = system: STAT5, ERK and AKT; test: Western blotting of downstream kinase targets; assay type: cell-based
Protocol: 2×10^6 cells were incubated in the presence of various inhibitor concentrations alone and in combination for 1 hour at 37° C. Preparation of cellular lysates was performed as described previously (Kindler, T., Breitenbuecher, F., Kasper, S., Estey, E., Giles, F., Feldman, E., Ehninger, G., Schiller, G., Klimek, V., Nimer, S. D., Gratwohl, A., Choudhary, C. R., Mueller-Tidow, C., Serve, H., Gschaidmeier, H., Cohen, P. S., Huber, C. & Fischer, T. (2005) Identification of a novel activating mutation (Y842C) within the activation loop of FLT3 in patients with acute myeloid leukemia (AML). Blood, 105, 335-340). Protein lysates were subjected to SDS polyacrylamid gel electrophoresis (SDS-PAGE) and blotted onto nitrocellulose membrane (Amersham, Freiburg, Germany) as previously described (Kindler, et al 2003). The following antibodies were used: anti-phospho-FLT3, anti-phospho-STAT5 (pTyr694/699), anti-phospho AKT (pSer473), anti-phospho ERK (pThr202/pTyr204) (all Cell Signaling Technology™, Frankfurt, Germany), anti-FLT3, anti-AKT and anti-STAT5 (Santa Cruz, Heidelberg, Germany), and anti-β-Actin (ICN). Densitometric analysis was performed using the program Gel-Pro Analyzer®.

[5] = system: FLT3-ITD-positive cells; test: Drug combination with chemotherapy, Chou-Talalay plot (CompuSyn); assay type: cell-based
Protocol: The chemotherapeutic agents cytarabine and daunorubicine were dissolved and diluted in aqua dest. Equivalent doses of DMSO were added when used for combination treatment.
For definition of synergism and/or antagonism in drug combinations we used the CompuSyn™ software (Chou, T C and Martin, N; ComboSyn, Inc. Paramus, N. J., USA) as previously described (Chou, T. C. (2006) Theoretical basis, experimental design, and computerized simulation of synergism and antagonism in drug combination studies. Pharmacol Rev, 58, 621-681).

[6] = system: FLT3; test: Immunoprecipitation of FLT3 (anti-FLT3 and anti-P-Tyr); assay type: cell-based
[7] = system: primary AML blasts harboring the FLT3-ITD mutation; test: Apoptosis (sub-G1 fraction, FACS) in primary AML blasts; assay type: cell-based, human; settings: primary AML blasts with FLT3-ITD mutation, 72 h incubation
Protocol: Transfected murine 32D cells (1×10^5 cells/well) were incubated in 2 ml RPMI medium supplemented with 10% FCS with different inhibitor concentrations for 48 hours at 37° C. Primary human cells (2×10^5 cells/well) were incubated for 72 hours at 37° C. After incubation, cells were washed with ice cold PBS, pelleted and mixed with 300 μl of propidium-iodide-buffer (containing 50 μg/ml PI in 0.1% sodium citrate plus 0.1% Triton X 100, Sigma) for 30 minutes at 4° C. Cell cycle analysis was performed as described previously (Nicoletti, I., Migliorati, G., Pagliacci, M. C., Grignani, F. & Riccardi, C. (1991) A rapid and simple method for measuring thymocyte apoptosis by propidium iodide staining and flow cytometry. J Immunol Methods, 139, 271-279) using a FACSCanto™ flow cytometer (BD Biosciences, Heidelberg, Germany).
BM- and PB-samples with heparin as anticoagulant were obtained from AML patients or donors with no evidence of malignant bone marrow infiltration after informed consent in a study approved by the local ethics committee. Mononuclear cells (MNC) were isolated immediately by means of Ficoll-Hypaque (Seromed, Berlin, Germany) density gradient centrifugation. […]
Primary AML blasts at primary diagnosis were incubated for 72 h with both 3-(indolyl)- and 3-(azaindolyl)-4-phenylmaleimide derivatives. Induction of apoptosis was measured by sub-G1-fraction in FACS analysis. […]

[8] = system: non-malignant bone marrow cells; test: Colony assay of non-malignant bone marrow cells; settings: day 10
Protocol: Bone-marrow MNCs were isolated as indicated above. Bone marrow samples were obtained from patients in CR after NHL or AML treatment or without evidence of any malignant bone marrow infiltration. 1×10^5 cells were plated in 1.1 ml Methocult™ (GF H4534) “Complete” Methylcellulose Medium with recombinant cytokines (StemCell Technologies, Vancouver, Canada) and incubated for 10 days at 37° C. in duplicate. Colony formation was counted on day 10.

| Compound | inhibition of FLT3-kinase [1] | sub-G1-cell fraction (induction of apoptosis) [2] | induction of apoptosis [3] | phosphorylation of downstream-targets STAT5, ERK and AKT [4] | effect in combination with cytarabine [5] | effect in combination with daunorubicine [5] | phosphorylation of FLT3 [6] | induction of apoptosis, percentage of apoptotic cells on top of ground apoptosis [7] | colony formation ([8]; 10 μM) | reduction in colony formation ([8]; up to 5 μM) |
| --- | --- | --- | --- | --- | --- | --- | --- | --- | --- | --- |
| COc1cc(C2=C(c3c[nH]c4ccccc34)C(=O)NC2=O)cc(OC)c1OC [DHF125, 3-(Indole-3-yl)-4-(3,4,5-trimethoxyphenyl)-1H-pyrrole-2,5-dione] | ATP competitive inhibition | statistically very significant dose-dependent increase | No significant induction of apoptosis | dephosphorylation | synergistic effects | synergistic effects | dephosphorylation | 10-17% | – | – |
| COc1cc(C2=C(c3c[nH]c4ncccc34)C(=O)NC2=O)cc(OC)c1OC [DHF150, 3-(7-Azaindol-3-yl)-4-(3,4,5-trimethoxyphenyl)-1H-pyrrole-2,5-dione] | ATP competitive inhibition | statistically very significant dose-dependent increase | No significant induction of apoptosis | dephosphorylation | synergistic effects | synergistic effects | dephosphorylation | 17-28% | reduced to a minimum | no significant reduction |
